Experimental data published in EP4803511A1, “SMALL MOLECULE COMPOUND HAVING SULFONIC ACID OR SULFINIC ACID LACTONE STRUCTURE, COMPOSITION AND USE THEREOF” (Hangzhou Phecdamed Co., Ltd., priority 2023, dated 2025).

Key:
[1] = tested on: wild-type AB strain zebrafish; assay: Zebrafish model, relieving anti-inflammatory efficacy (copper sulfate-induced, inflammatory cells at the neurothalamus); type: in vivo; conditions: zebrafish 3 dpf, 40 µM copper sulfate model; effective concentrations 7.4, 22.2, and 66.6 µg/mL
Experimental: (§1) Experimental animal: Healthy wild-type AB strain zebrafish at 3 dpf (days post fertilization)
Evaluation of the relieving stinging efficacy: Healthy AB strain zebrafish were taken and randomly divided into four groups: blank control, modeling group, positive control, and sample group. […] After continuous treatment for a certain period, the zebrafish's behavioral trajectories were recorded using a behavior analyzer, and the changes in total movement distance and speed were statistically analyzed, the results are shown in FIGS. 2-4. […]
Evaluation of the relieving anti-inflammatory efficacy: As described above, the modeling drug was 40 µM copper sulfate, the positive control drug was 200 µM asiaticoside, and the concentrations of I-8 were 66.6, 22.2, and 7.4 µg/mL respectively. After treating zebrafish as described above, inflammatory cells in their bodies were stained, the number of inflammatory cells at the neurothalamus was counted, and statistical analysis was performed.

COL4A1 = assay: Collagen IV gene expression in HaCaT human immortalized keratinocytes; type: cell-based; conditions: 24 hrs, dose-dependent
Text: Skin fragility is partly attributed to changes in hemidesmosomes and the expression downregulation of various collagen proteins (Collagen I, III, IV, VII) or laminins (such as LN-5) at the dermal-epidermal junction. LN-5 has been proven to be a component of anchoring fibers in the basement membrane of the skin, cornea, conjunctiva, and other tissues. LN-5 participates in cell-cell interactions through the mediation of integrins and proteoglycans, thereby playing a crucial role in cell adhesion, growth, migration, and differentiation. The appearance of wrinkles is closely related to the normal synthesis and expression of collagen and laminins. Therefore, the increase of the above collagen content and LN-5 can achieve a certain role in resisting wrinkles, and plays an important role in the aging process of the skin. Therefore, the anti-wrinkle effect of the compound to be tested was evaluated by detecting the level of Collage I protein of […] by ELISA, and detecting the transcription levels of epidermal cells (keratinocytes) III, IV, VII and LN -5 by Real-Time PCR. The following Test Examples 8-1 and 8-2 evaluated the anti-wrinkle efficacy of compounds using HaCaT human immortalized keratinocytes and HSF human skin fibroblasts. […]

[2] = tested on: wild-type AB strain zebrafish; assay: Zebrafish model, relieving stinging efficacy (SDS-induced, movement distance and speed); type: in vivo; conditions: zebrafish 3 dpf, 100 µM SDS model; effective concentrations 22.2, 66.6, and 200 µg/mL
Experimental: as §1
Evaluation of the relieving stinging efficacy: Healthy AB strain zebrafish were taken and randomly divided into four groups: blank control, modeling group, positive control, and sample group. The zebrafish in the blank control group were treated with embryo culture water; the zebrafish in the modeling group were treated with a modeling drug (100 µM SDS , sodium dodecyl sulfate); the zebrafish in the positive control group were treated with both the modeling agent and a positive control drug (200 µM asiaticoside solution); and the zebrafish in the sample group were treated with both the modeling drug and different concentrations of the test sample (high, medium, and low concentrations). After continuous treatment for a certain period, the zebrafish's behavioral trajectories were recorded using a behavior analyzer, and the changes in total movement distance and speed were statistically analyzed, the results are shown in FIGS. 2-4. […] In the behavioral trajectory diagram in FIG. 2, the black lines represent the zebrafish's behavioral trajectories in the hole; the more numerous and chaotic the lines, the more vigorous the movement of the zebrafish.

TNF-α = TNF-α gene expression in HaCaT after UVB radiation (q-PCR); type: cell-based, human; conditions: UVB 80 mJ/cm^2, 24 hrs, dose-dependent
Text: In the following Test Examples 6-1 and 6-2, using immortalized keratinocytes (HaCaT) and UVB to establish a model, after the compound to be test was applied to HaCaT, the expression levels of TNF-α, IL-8, IL-1β and EP2 were detected; using immortalized keratinocytes (HaCaT) and capsaicin to establish a model, after the compound to be test was applied to HaCaT, the expression level of TRPV1 was detected, so as to evaluate the soothing effect of the test substance from multiple dimensions.
• 1) Cell inoculation: HaCaT cells were inoculated into a 6-well plate at 6×10^5/well, cultured in an incubator (37°C, 5% CO2) for 12 hrs, and a normal control group (0 mJ/cm^2 + vehicle control), a model control group (80 mJ/cm^2 + vehicle control), a low concentration group (80 mJ/cm^2 + low concentration compound), a medium concentration group (80 mJ/cm^2 + medium concentration compound), and a high concentration group (80 mJ/cm^2 + high concentration compounds) were respectively provided. • 2) UVB modeling: The HaCaT cells were washed 3 times with D'Hanks before UVB radiation, 1 mL of D'Hanks was added into the wells, to make the cells to be immersed, and the control group was coated with tinfoil and placed in the dark. […]

**Q.** O=S1(=O)Oc2cc(O)ccc2-c2ccc(O)cc21 [Compound I-8] was tested. Which relieving anti-inflammatory efficacy [1] did it give?
**A.** certain relieving anti-inflammatory efficacy

**Q.** And the COL4A1 gene expression (COL4A1)?
**A.** upregulate

**Q.** And the relieving stinging efficacy [2]?
**A.** certain relieving stinging efficacy

**Q.** What about the “expression level of TNF-α” value (TNF-α) of the same compound?
**A.** downregulating
